Source: ChEMBL document CHEMBL3045656, “Is the application of carbendazim harmful to healthy plants? Evidence of weak phytotoxicity in tobacco” (J Agric Food Chem, 2002)

Tests used:
Type in all cases: organism-based
Nicotiana tabacum [1] = assay: Toxicity in Nicotiana tabacum (tobacco) leaves assessed as effect on chlorophyll-b level at 2.6 mM treated 3 times in 2 weeks measured prior to onset of flowering relative to control; conditions: in vivo, 336 h, 2600 µM
Nicotiana tabacum [2] = assay: Toxicity in Nicotiana tabacum (tobacco) leaves assessed as reduction of dry weight at 5.2 mM treated 3 times in 2 weeks measured prior to onset of flowering relative to control; parameters: scale not given: the % may be the effect or the level left; conditions: in vivo, 336 h, 5200 µM
Nicotiana tabacum [3] = assay: Toxicity in Nicotiana tabacum (tobacco) leaves assessed as effect on carotenoids level at 2.6 mM treated 3 times in 2 weeks measured prior to onset of flowering relative to control; conditions: in vivo, 336 h, 2600 µM
Nicotiana tabacum [4] = assay: Toxicity in Nicotiana tabacum (tobacco) leaves assessed as nitrogen level per gram of dry weight per leaf at 2.6 mM treated 3 times in 2 weeks measured prior to onset of flowering relative to control; conditions: in vivo, 336 h, 2600 µM
Nicotiana tabacum [5] = assay: Toxicity in Nicotiana tabacum (tobacco) leaves assessed as effect on chlorophyll-a level at 1.3 mM treated 3 times in 2 weeks measured prior to onset of flowering relative to control; conditions: in vivo, 336 h, 1300 µM
Nicotiana tabacum [6] = assay: Toxicity in Nicotiana tabacum (tobacco) leaves assessed as effect on chlorophyll-a level at 2.6 mM treated 3 times in 2 weeks measured prior to onset of flowering relative to control; conditions: in vivo, 336 h, 2600 µM
Nicotiana tabacum [7] = assay: Toxicity in Nicotiana tabacum (tobacco) leaves assessed as magnesium level per gram of dry weight per leaf at 5.2 mM treated 3 times in 2 weeks measured prior to onset of flowering relative to control; conditions: in vivo, 336 h, 5200 µM
Nicotiana tabacum [8] = assay: Toxicity in Nicotiana tabacum (tobacco) leaves assessed as effect on chlorophyll-a level at 5.2 mM treated 3 times in 2 weeks measured prior to onset of flowering relative to control; conditions: in vivo, 336 h, 5200 µM
Nicotiana tabacum [9] = assay: Toxicity in Nicotiana tabacum (tobacco) leaves assessed as potassium level per gram of dry weight per leaf at 5.2 mM treated 3 times in 2 weeks measured prior to onset of flowering relative to control; conditions: in vivo, 336 h, 5200 µM
Nicotiana tabacum [10] = assay: Toxicity in Nicotiana tabacum (tobacco) leaves assessed as effect on carotenoids level at 1.3 mM treated 3 times in 2 weeks measured prior to onset of flowering relative to control; conditions: in vivo, 336 h, 1300 µM
Nicotiana tabacum [11] = assay: Toxicity in Nicotiana tabacum (tobacco) leaves assessed as potassium level per gram of dry weight per leaf at 2.6 mM treated 3 times in 2 weeks measured prior to onset of flowering relative to control; conditions: in vivo, 336 h, 2600 µM
Nicotiana tabacum [12] = assay: Toxicity in Nicotiana tabacum (tobacco) leaves assessed as nitrogen level per gram of dry weight per leaf at 1.3 mM treated 3 times in 2 weeks measured prior to onset of flowering relative to control; conditions: in vivo, 336 h, 1300 µM
Nicotiana tabacum [13] = assay: Toxicity in Nicotiana tabacum (tobacco) leaves assessed as potassium level per gram of dry weight per leaf at 1.3 mM treated 3 times in 2 weeks measured prior to onset of flowering relative to control; conditions: in vivo, 336 h, 1300 µM
Nicotiana tabacum [14] = assay: Toxicity in Nicotiana tabacum (tobacco) leaves assessed as effect on carotenoids level at 5.2 mM treated 3 times in 2 weeks measured prior to onset of flowering relative to control; conditions: in vivo, 336 h, 5200 µM
Nicotiana tabacum [15] = assay: Toxicity in Nicotiana tabacum (tobacco) leaves assessed as magnesium level per gram of dry weight per leaf at 2.6 mM treated 3 times in 2 weeks measured prior to onset of flowering relative to control; conditions: in vivo, 336 h, 2600 µM
Nicotiana tabacum [16] = assay: Toxicity in Nicotiana tabacum (tobacco) leaves assessed as phosphorus level per gram of dry weight per leaf at 5.2 mM treated 3 times in 2 weeks measured prior to onset of flowering relative to control; conditions: in vivo, 336 h, 5200 µM
Nicotiana tabacum [17] = assay: Toxicity in Nicotiana tabacum (tobacco) leaves assessed as reduction of dry weight at 1.3 to 2.6 mM treated 3 times in 2 weeks measured prior to onset of flowering; conditions: in vivo, 336 h, 2600 µM
Nicotiana tabacum [18] = assay: Toxicity in Nicotiana tabacum (tobacco) leaves assessed as phosphorus level per gram of dry weight per leaf at 2.6 mM treated 3 times in 2 weeks measured prior to onset of flowering relative to control; conditions: in vivo, 336 h, 2600 µM
Nicotiana tabacum [19] = assay: Toxicity in Nicotiana tabacum (tobacco) leaves assessed as effect on chlorophyll-b level at 5.2 mM treated 3 times in 2 weeks measured prior to onset of flowering relative to control; conditions: in vivo, 336 h, 5200 µM
Nicotiana tabacum [20] = assay: Toxicity in Nicotiana tabacum (tobacco) leaves assessed as calcium level per gram of dry weight per leaf at 2.6 mM treated 3 times in 2 weeks measured prior to onset of flowering relative to control; conditions: in vivo, 336 h, 2600 µM
Nicotiana tabacum [21] = assay: Toxicity in Nicotiana tabacum (tobacco) leaves assessed as calcium level per gram of dry weight per leaf at 5.2 mM treated 3 times in 2 weeks measured prior to onset of flowering relative to control; conditions: in vivo, 336 h, 5200 µM
Nicotiana tabacum [22] = assay: Toxicity in Nicotiana tabacum (tobacco) leaves assessed as nitrogen level per gram of dry weight per leaf at 5.2 mM treated 3 times in 2 weeks measured prior to onset of flowering relative to control; conditions: in vivo, 336 h, 5200 µM
Nicotiana tabacum [23] = assay: Toxicity in Nicotiana tabacum (tobacco) leaves assessed as calcium level per gram of dry weight per leaf at 1.3 mM treated 3 times in 2 weeks measured prior to onset of flowering relative to control; conditions: in vivo, 336 h, 1300 µM
Nicotiana tabacum [24] = assay: Toxicity in Nicotiana tabacum (tobacco) leaves assessed as effect on chlorophyll-b level at 1.3 mM treated 3 times in 2 weeks measured prior to onset of flowering relative to control; conditions: in vivo, 336 h, 1300 µM
Nicotiana tabacum [25] = assay: Toxicity in Nicotiana tabacum (tobacco) leaves assessed as magnesium level per gram of dry weight per leaf at 1.3 mM treated 3 times in 2 weeks measured prior to onset of flowering relative to control; conditions: in vivo, 336 h, 1300 µM
Nicotiana tabacum [26] = assay: Toxicity in Nicotiana tabacum (tobacco) leaves assessed as phosphorus level per gram of dry weight per leaf at 1.3 mM treated 3 times in 2 weeks measured prior to onset of flowering relative to control; conditions: in vivo, 336 h, 1300 µM

`COC(=O)Nc1nc2ccccc2[nH]1` [CARBENDAZIM] gave an Activity (Nicotiana tabacum [1]) of 24.98 microg/cm2, an Activity (Nicotiana tabacum [2]) of 17% and an Activity (Nicotiana tabacum [3]) of 4.64 microg/cm2. It also gave an Activity (Nicotiana tabacum [4]) of 41.6 mg, an Activity (Nicotiana tabacum [5]) of 66.82 microg/cm2 and an Activity (Nicotiana tabacum [6]) of 62.46 microg/cm2. The Activity (Nicotiana tabacum [7]) was 6.5 mg, the Activity (Nicotiana tabacum [8]) was 54.14 microg/cm2 and the Activity (Nicotiana tabacum [9]) was 34.1 mg. For the same compound, the Activity (Nicotiana tabacum [10]) was 4.8 microg/cm2, the Activity (Nicotiana tabacum [11]) was 35.4 mg and the Activity (Nicotiana tabacum [12]) was 41.7 mg. The Activity (Nicotiana tabacum [13]) was 36.7 mg, the Activity (Nicotiana tabacum [14]) was 3.9 microg/cm2 and the Activity (Nicotiana tabacum [15]) was 6.7 mg. The Activity (Nicotiana tabacum [16]) was 8.47 mg, the Activity (Nicotiana tabacum [17]) was “Non-toxic” and the Activity (Nicotiana tabacum [18]) was 8.61 mg. The Activity (Nicotiana tabacum [19]) was 21.9 microg/cm2, the Activity (Nicotiana tabacum [20]) was 10.2 mg and the Activity (Nicotiana tabacum [21]) was 10.1 mg. It also gave an Activity (Nicotiana tabacum [22]) of 38.9 mg, an Activity (Nicotiana tabacum [23]) of 10.5 mg and an Activity (Nicotiana tabacum [24]) of 25.88 microg/cm2. For the same compound, the Activity (Nicotiana tabacum [25]) was 6.4 mg and the Activity (Nicotiana tabacum [26]) was 9.73 mg.
